Data from patent US20230128194A1, “METHODS AND COMPOSITIONS TO ALTER HEPATIC GABA RELEASE TO TREAT OBESITY-RELATED CONDITIONS” (ARIZONA BOARD OF REGENTS ON BEHALF OF THE UNIVERSITY OF …, priority 2017, published 2023).

Legend:
Kir2.1 = target: T1, Kir2.1 (Homo sapiens, UniProt P63252); assay: Barium induced change in hepatocyte membrane potential in Kir2.1 and eGFP expressing mice; type: in vivo, mouse; settings: 50 μM bath application
T1 construct: host or cells: hepatocytes of wildtype mice in vivo, AAV8 with TBG promoter
T1 sequence (P63252 1-427): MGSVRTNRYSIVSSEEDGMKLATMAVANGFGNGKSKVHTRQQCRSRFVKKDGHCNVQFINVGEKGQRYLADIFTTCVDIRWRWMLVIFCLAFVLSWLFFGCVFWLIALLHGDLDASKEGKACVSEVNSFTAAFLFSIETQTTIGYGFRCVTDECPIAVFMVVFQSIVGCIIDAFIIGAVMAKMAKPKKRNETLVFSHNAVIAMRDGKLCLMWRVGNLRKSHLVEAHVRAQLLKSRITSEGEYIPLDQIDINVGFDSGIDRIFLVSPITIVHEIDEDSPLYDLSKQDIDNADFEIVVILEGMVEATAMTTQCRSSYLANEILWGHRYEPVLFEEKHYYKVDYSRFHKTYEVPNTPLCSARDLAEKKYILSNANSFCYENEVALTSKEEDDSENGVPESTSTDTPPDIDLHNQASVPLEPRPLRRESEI

Na+/K+ ATPase = assay: liver slice GABA release with Na+/K+ ATPase inhibitor; type: cell-based, mouse; settings: 1 mM, bath application
Excerpt: Two liver slices were taken from each mouse.

[1] = system: PSEM89S ligand-gated depolarizing channel; type: in vivo, mouse
Excerpt: (§1) The depolarizing channel (PSAM^L141F,Y115F-5 HT3HC), originally engineered by Dr. Scott Sternsons group, was made by mutating the acetylcholine binding domain of a chimeric channel that included the binding domain of the α7 nicotinic acetylcholine receptor and the ion pore domain of the serotonin receptor 3a. The ligand binding domain mutations (Leu^141→Phe and Tyr^115→Phe) limited the agonist action of acetylcholine and allowed for stimulation by a pharmacologically selective effector molecule PSEM89S. The exogenous ligand PSEM89S opens the serotonin receptor 3a channel allowing Na^+, K^+, and Ca^++ passage into the cell and membrane depolarization. AAV8 viral vectors were used for plasmid delivery in all the reported studies and were synthesized by the Penn Vector Core. Hepatic specific expression of the depolarizing channel was achieved through two different methods. First, expression of a cre-recombinase dependent depolarizing channel was driven by a globally expressed CAG promoter. LoxP sites limited expression to cre-recombinase expressing tissue, and tail vein injection of 1×10^10 viral genome copies established hepatocyte expression in albumin-cre but not wildtype mice. Second, a separate AAV8 viral vector, induced hepatic specific expression of the same depolarizing channel by driving expression using the thyroxine binding globulin (TBG) promoter. Tail vein injection of 1×10^11 viral genome copies established hepatocyte expression (FIG. 18C). The thyroxine binding globulin promoter also drove hepatic expression of the hyperpolarizing, inward-rectifier K^+ channel, Kir2.1. […]
Simultaneous in vivo recordings were performed of hepatocyte membrane potential and hepatic afferent vagal nerve firing activity in anesthetized (isoflurane) mice to directly assess the effect of hepatocyte depolarization on hepatic afferent vagal nerve activity. […] After placement and sealing of the hook electrode, 45-60 minutes of basal nerve activity was monitored/recorded with pClamp software (version 10.2; Molecular Devices) until nerve activity stabilized, after which, treatments began. […]

[2] = system: PSEM89S ligand-gated depolarizing channel; assay: PSEM89S ligand IP in mice with cre-dependent hepatic depolarizing channel: serum insulin, glucose; type: in vivo, mouse; settings: 30 mg/kg IP
Excerpt: The depolarizing channel (PSAM^L141F,Y115F-5 HT3HC), originally engineered by Dr. Scott Sternsons group, was made by mutating the acetylcholine binding domain of a chimeric channel that included the binding domain of the α7 nicotinic acetylcholine receptor and the ion pore domain of the serotonin receptor 3a. The ligand binding domain mutations (Leu^141→Phe and Tyr^115→Phe) limited the agonist action of acetylcholine and allowed for stimulation by a pharmacologically selective effector molecule PSEM89S. The exogenous ligand PSEM89S opens the serotonin receptor 3a channel allowing Na^+, K^+, and Ca^++ passage into the cell and membrane depolarization. AAV8 viral vectors were used for plasmid delivery in all the reported studies and were synthesized by the Penn Vector Core. Hepatic specific expression of the depolarizing channel was achieved through two different methods. First, expression of a cre-recombinase dependent depolarizing channel was driven by a globally expressed CAG promoter. LoxP sites limited expression to cre-recombinase expressing tissue, and tail vein injection of 1×10^10 viral genome copies established hepatocyte expression in albumin-cre but not wildtype mice. Second, a separate AAV8 viral vector, induced hepatic specific expression of the same depolarizing channel by driving expression using the thyroxine binding globulin (TBG) promoter. Tail vein injection of 1×10^11 viral genome copies established hepatocyte expression (FIG. 18C). The thyroxine binding globulin promoter also drove hepatic expression of the hyperpolarizing, inward-rectifier K^+ channel, Kir2.1. Tail vein injection of 1×10^11 viral genome copies established hepatocyte specific expression (FIG. 19A). To confirm channel expression and tissue specificity, all viral vector plasmids encoded for enhanced green fluorescent protein (eGFP).
All studies in virus injected mice were conducted at least 5 days post virus injection to allow for maximal channel expression. Individually housed mice were intraperitoneally injected with the ligand for the depolarizing channel (PSEM89S; 30 mg/kg; 0.1 mL/10 g body weight) or PBS (0.1 mL/10 g body weight).
Studies conducted in mice injected with the cre-dependent depolarizing channel virus took place at 8 am. […]
(§2) Within 2 hours of collection, blood was left to clot at room temperature for 20 minutes. […] Serum glucose was analyzed by colorimetric assay (Cat. #G7519, Pointe Scientific Inc., Canton Mich.). Serum insulin was analyzed by enzyme-linked immunosorbent assay (ELISA; Cat. #80-INSMSU-E01,E10, Alpco, Salem, N.H.). Serum glucagon was analyzed by enzyme-linked immunosorbent assay (ELISA; Cat. #10-1281-01, Mercodia, Uppsala, Sweden) from tail vein blood collected at 9 am from fed mice (Vagotomy study) or after a 4 hour fast at 1 PM (Kir2.1 study).

[3] = system: PSEM89S ligand-gated depolarizing channel; assay: PSEM89S ligand IP before oral glucose in mice with TBG promoter driven depolarizing channel; type: in vivo, mouse; settings: TBG channel expressing mice
Excerpt: as §1, with “18C).” for “18C). The thyroxine binding globulin promoter also drove hepatic expression of the hyperpolarizing, inward-rectifier K^+ channel, Kir2.1.”
as §2

[4] = system: high fat diet-induced obese mice; assay: GABA-T inhibitors (8 mg/day IP) in HFD-induced obese mice: body weight, serum insulin/glucose/glucagon, OGTT, ITT; type: in vivo, mouse
Description: (§3) All animal studies were conducted using male wildtype C57BL/6J mice purchased from Jackson Laboratories or bred in-house (Bar Harbor, Me.). Mice were kept on a 14-hour light/10-hour dark schedule and housed 3-5 mice per cage until 1 week prior to study initiation, at which point animals were individually housed. Studies were conducted in lean chow fed mice (7013 NIH-31, Teklad WI, 3.1 kcal/g, 18% kcal from fat, 59% kcal from carbohydrate, 23% kcal from protein) at 12-16 weeks of age. Studies in diet-induced obese mice dosed intraperitoneally with GABA transaminase inhibitors, mice treated with ethanolamine-O-sulfate in their drinking water, and mice treated with GABA-T targeted or scramble control antisense oligonucleotides (ASO) were performed after 8-10 weeks on a high fat diet (TD 06414, Teklad WI, 5.1 kcal/g, 60.3% kcal from fat, 21.3% kcal from carbohydrate, 18.4% kcal from protein; 20-26 weeks of age). For ASO studies, mice were stratified by body weight and assigned to an injection treatment (control or GABA-T). Studies in obese vagotomy and sham mice were performed after 9 weeks of high fat diet feeding. Unless fasted, mice had ad libitum access to food and water. All studies were approved by The University of Arizona Institutional Animal Care and Use Committee.
(§4) Wildtype lean and obese mice were randomly divided into treatment groups and dosed daily with 8 mg of ethanolamine-O-sulfate (EOS; Sigma-Aldrich, St. Louis, Mo.), vigabatrin (United States Pharmacopeia, Rockville, Md.) or PBS. Obese sham and vagotomy mice were dosed daily with 8 mg of EOS. In all cases, basal bleeds were taken prior to initiation of an ITT. Lean mice received treatment by oral gavage (0.3 mL/mouse) while obese mice were treated by intraperitoneal injection (0.3 mL/mouse). Pre-treatment studies were conducted in the week immediately prior to beginning drug administration. Daily doses took place at 9 am each day and oral glucose tolerance tests (OGTT) and insulin tolerance tests (ITT) were performed on the third and fourth days of treatment in lean mice, respectively. In wildtype obese mice, OGTT and ITT were performed on the fourth day of treatment in separate cohorts. On the fifth day of treatment, 2DG clearance studies were performed. In sham/vagotomy mice, OGTT and ITT were performed on the fourth and fifth day of treatment, respectively. After a 2-week washout period without treatment injection, a basal bleed and bleed 15 minutes after an oral glucose gavage ([…]) to determine oral glucose stimulated insulin secretion were performed.
(§5) Oral glucose (2.5 g/kg; 0.1 mL/10 g body weight; Chem-Impex Int'l Inc., Wood Dale, Ill.) was given to 4 hour fasted individually housed mice. All glucose tolerance tests began at […] and glucose was measured in whole blood, collected from the tail vein, by glucometer (Manufacture #D2ASCCONKIT, Bayer, Leverkusen, Germany) at 0, 15, 30, 60, 90, and 120 minutes after glucose gavage. Blood for serum insulin (oral glucose stimulated insulin secretion; OGSIS) and glucose determination was collected from the tail vein 15 minutes following glucose administration.
(§6) Intraperitoneal insulin (0.5 U/kg; 0.1 mL/10 g body weight; Sigma Aldrich, St. Louis, Mo.) was given to 4 hour fasted individually housed mice. All insulin tolerance tests began at […] and glucose was measured in whole blood, collected from the tail vein, by glucometer (Manufacture #D2ASCCONKIT, Bayer, Leverkusen, Germany) at 0, 30, 60, 90, and 120 minutes after insulin injection.
(§7) Within 2 hours of collection, blood was left to clot at room temperature for 20 minutes. Thereafter, the blood was centrifuged at 3,000×g for 30 minutes at 4° C. and serum was collected. Serum was stored at −80° C. until metabolite and hormone analyses. A colorimetric assay was used to analyze serum glucose (Cat. #G7519, Pointe Scientific Inc., Canton Mich.). Serum insulin was analyzed by enzyme-linked immunosorbent assay (ELISA; Cat. #80-INSMSU-E01,E10, Alpco, Salem, N.H.). […]

lean mice = assay: GABA-T inhibitors (8 mg/day oral gavage) in lean mice: glucose homeostasis; type: in vivo, mouse; settings: 8 mg/day
Description: as §3, §4, §5, §6, §7

[5] = system: lean mice and obese control or GABA-T ASO treated mice; assay: leptin sensitivity (single 6 am leptin injection): food intake, body weight; type: in vivo, mouse
Description: Lean mice or diet-induced obese control or GABA-T targeted ASO treated mice received an intraperitoneal injection of phosphate buffered saline (PBS; 0.1 mL/10 g body weight) on day 1 and leptin (2 mg/kg; 0.1 mL/10 g body weight; CAT#498-OB, R&D Systems, Minneapolis, Minn.) on day 2 at 6 am. Mice were not fasted before injections. Food and body weight were measured every day at 6 am and 6 pm.

[6] = albumin-cre channel expressing mice
[7] = 30 mg/kg IP 10 minutes before oral glucose 2.5 g/kg
[8] = 8 mg/day IP, four days, relative to pre-treatment
[9] = chow fed mice, single 6AM injection

[Ba+2] [Ba2+, Barium]
depolarization of hepatocytes (Kir2.1; Kir2.1 expressing mice): 6.86±1.54 mV | change in hepatocyte membrane potential (Kir2.1; control eGFP expressing mice): −0.62±1.86 mV

C[C@@H]1O[C@@H](O[C@H]2C[C@@H](O)[C@]3(CO)[C@H]4[C@H](O)C[C@]5(C)[C@@H](C6=CC(=O)OC6)CC[C@]5(O)[C@@H]4CC[C@]3(O)C2)[C@H](O)[C@H](O)[C@H]1O [Ouabain]
increase of liver slice GABA release (μmol/mg DNA) (Na+/K+ ATPase): more than 40%

COc1ccc(OC)c(C(=O)N[C@@H]2CN3CCC2CC3)c1.O=C(O)C(F)(F)F [PSEM89S ligand]
HVAN firing activity ([1]; 30 μM bath application, albumin-cre channel expressing mice): decreased | hepatocyte depolarization at 10 minutes ([1]; mouse, in vivo): 17.0±5.4 mV | maximal hepatocyte depolarization ([1]; mouse, in vivo): 28±5.4 mV | serum glucose [2, 6]: decreased | serum insulin [2, 6]: more than doubled | glucose:insulin ratio ([2]; albumin-cre mice): decreased | serum insulin, glucose, or glucose:insulin ratio ([2]; wildtype mice): did not alter | glucose:insulin ratio [3, 7]: lowered | serum insulin [3, 7]: elevated | rise in serum glucose following oral glucose gavage ([3]; 30 mg/kg IP): did not affect

C=CC(N)CCC(=O)O (stereo not shown) [vigabatrin]
glucose:insulin ratio [4, 8]: increased | serum glucose [4, 8]: decreased | serum insulin [4, 8]: decreased | body weight ([4]; 8 mg/day IP, through 5 days, vs saline injected mice): remained similar | glucose stimulated serum insulin ([4]; treatment day 4, relative to pre-treatment): decreased | glucose stimulated serum insulin after washout ([4]; two-weeks washout): markedly increased | serum insulin and glucose:insulin ratio after washout ([4]; two-weeks washout): return of serum insulin and the glucose:insulin ratio to pre-treatment levels | insulin sensitivity assessed by insulin tolerance test (ITT) ([4]; within 4 days of initiating treatment): improved | glucose tolerance (lean mice): no effect | insulin sensitivity (lean mice): no effect | serum insulin concentrations (lean mice): no effect

leptin: anorexigenic hormone leptin (R&D Systems)
body weight [5, 9]: without affecting | light cycle and 24-hour food intake [5, 9]: decreased | relative weight change ([5]; control or GABA-T ASO obese mice, 2 mg/kg): not affected | food intake ([5]; obese mice on either ASO treatment, 2 mg/kg single 6AM injection, any timepoint): did not affect
